Reference: patent US4472392A, “Sulfonate containing ester prodrugs of corticosteroids” (The Upjohn Company, priority 1983, dated 1984)
Structures can show the parent of a compound that is named as a salt.

Experiments:
[1] = M. Kawamura et al., Yakugaku Zasshi, 91, 871 (1971); cited from earlier work
[2] = Base catalyzed hydrolysis rate in concentrated versus dilute solution; format: physicochemical; settings: 0.11M solution versus 5×10^-4 M solution
Excerpt: The actual shelf-life of formulations of the above compounds would be expected to differ from the above estimates for two reasons: (1) The solubility of the parent corticosteroid formed on hydrolysis may be exceeded prior to 10% degradation of the ester. Micelle formation by the intact prodrugs of Formula I results in solubilization of free corticosteroid thereby prolonging shelf-life. […]. The degree of solubilization varies with the ester concentration, nature of the pro-moiety, and the structure of the corticosteroid. (2) Micelle formation by the intact prodrug in concentrated solutions results in stabilization of the ester linkage toward base catalyzed hydrolysis. For example, the base catalyzed hydrolysis rate in a 0.11M solution of the compound of Example 1 is less than one-half the rate in a 5×10^-4 M solution.

[3] = Estimated t90% (time for 10% hydrolysis) in dilute aqueous solution at 25° C; format: physicochemical; settings: extrapolated from rate constants at pH 2 and 8 (0.01 ionic strength buffers) to the pH at which hydrolysis is a minimum
Method: The solution stability of the compounds of Formula I varies to some extent depending on the nature of X and Y and the values for m and n. Shown in Table I are estimates of t90% (time for 10% hydrolysis) of various derivatives in dilute aqueous solutions at 25° C. These estimates are based on an extrapolation of the rate constants for acid and base catalyzed hydrolysis to the pH at which hydrolysis is a minimum. The rate constants for acid and base catalyzed hydrolysis were determined at pH 2 and 8, respectively, in 0.01 ionic strength buffers.

Row | Structure (SMILES) | activity in mice [1] | base catalyzed hydrolysis rate relative to the rate in dilute solution [2] | Estimated t90% (time for 10% hydrolysis) [3]
1 | C[C@]12CCC(=O)C=C1CC[C@@H]1[C@@H]2[C@@H](O)C[C@@]2(C)[C@H]1CC[C@]2(O)C(=O)COS(=O)(=O)O [21-sulfate of hydrocortisone] | inactive | – | –
2 | C[C@H]1C[C@@H]2[C@H]([C@@H](O)C[C@@]3(C)[C@H]2CC[C@]3(O)C(=O)COC(=O)CCC(=O)N(C)CCS(=O)(=O)O)[C@@]2(C)C=CC(=O)C=C12 [Example 1, N-Methyl taurine amide of methylprednisolone 21-hemisuccinate (Na salt)] | – | less than one-half | 3.9 years
3 | C[C@H]1C[C@@H]2[C@H]([C@@H](O)C[C@@]3(C)[C@H]2CC[C@]3(O)C(=O)COC(=O)CCCCCCC(=O)NCCS(=O)(=O)O)[C@@]2(C)C=CC(=O)C=C12 [Example 2, Taurine amide of methylprednisolone 21-suberate (Na salt)] | – | – | 3.9 years
4 | C[C@H]1C[C@@H]2[C@H]([C@@H](O)C[C@@]3(C)[C@H]2CC[C@]3(O)C(=O)COC(=O)CCCCCCC(=O)N(C)CCS(=O)(=O)O)[C@@]2(C)C=CC(=O)C=C12 [Example 3, N-Methyltaurine amide of methylprednisolone 21-hemisuberate (Na salt)] | – | – | 4.1 years
